Key:
Assay type in all cases: binding
Details in all cases: Compound Concentration 10 µM
panel of 442 kinases [1] = target: T1, panel of 442 kinases (Homo sapiens, UniProt P51812)
T1 construct: purchased KINOMEscan
Source text: (§1) We assessed the selectivity of members of this scaffold using the KINOMEscan methodology across a near comprehensive panel of 442 kinases [[18,27]].

panel of 442 kinases [2] = target: T2, panel of 442 kinases (Homo sapiens, UniProt P22694)
T2 construct: purchased KINOMEscan
Source text: as §1

panel of 442 kinases [3] = target: T3, panel of 442 kinases (Homo sapiens, UniProt P15735)
T3 construct: purchased KINOMEscan
T3 sequence (P15735 1-406): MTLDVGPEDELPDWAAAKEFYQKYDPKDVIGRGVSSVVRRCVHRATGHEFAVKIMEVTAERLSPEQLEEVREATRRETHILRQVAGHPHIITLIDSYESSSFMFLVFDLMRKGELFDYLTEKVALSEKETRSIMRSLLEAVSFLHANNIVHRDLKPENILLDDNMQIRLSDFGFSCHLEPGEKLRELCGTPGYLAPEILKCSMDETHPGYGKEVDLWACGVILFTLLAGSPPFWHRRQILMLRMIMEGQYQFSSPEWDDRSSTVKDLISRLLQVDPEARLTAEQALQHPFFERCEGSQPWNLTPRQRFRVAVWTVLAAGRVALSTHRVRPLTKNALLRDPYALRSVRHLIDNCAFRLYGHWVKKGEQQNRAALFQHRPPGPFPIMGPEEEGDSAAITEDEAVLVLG
Source text: as §1

T1 sequence (P51812 whole entry): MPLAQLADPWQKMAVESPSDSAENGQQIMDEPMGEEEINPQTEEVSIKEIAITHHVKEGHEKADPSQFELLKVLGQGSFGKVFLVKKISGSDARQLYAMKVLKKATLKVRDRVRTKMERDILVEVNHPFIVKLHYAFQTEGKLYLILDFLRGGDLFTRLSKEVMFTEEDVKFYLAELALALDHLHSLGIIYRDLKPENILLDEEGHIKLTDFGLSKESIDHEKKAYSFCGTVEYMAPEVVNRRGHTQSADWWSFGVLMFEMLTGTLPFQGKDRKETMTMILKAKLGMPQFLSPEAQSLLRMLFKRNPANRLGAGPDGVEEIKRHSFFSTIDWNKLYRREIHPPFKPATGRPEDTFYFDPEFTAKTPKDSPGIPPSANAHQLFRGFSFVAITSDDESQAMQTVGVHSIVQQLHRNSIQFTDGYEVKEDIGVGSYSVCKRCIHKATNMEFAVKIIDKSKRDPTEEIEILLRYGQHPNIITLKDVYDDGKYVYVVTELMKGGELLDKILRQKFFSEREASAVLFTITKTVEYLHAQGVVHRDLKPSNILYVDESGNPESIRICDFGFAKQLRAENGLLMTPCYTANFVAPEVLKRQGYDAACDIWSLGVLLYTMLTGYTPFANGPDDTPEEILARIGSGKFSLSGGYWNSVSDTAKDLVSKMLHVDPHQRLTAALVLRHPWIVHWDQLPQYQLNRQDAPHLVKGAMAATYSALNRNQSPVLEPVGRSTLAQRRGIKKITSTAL

Structure (SMILES)	KINOMEscan: RSK2(Kin.Dom.1-N-terminal) (panel of 442 kinases [1])	KINOMEscan: PKAC-beta (panel of 442 kinases [2])	KINOMEscan: PHKG2 (panel of 442 kinases [3])
CCOc1cc(C(=O)N2CCC(N3CCN(C)CC3)CC2)ccc1Nc1ncc2c(n1)N(C1CCCC1)c1ccccc1C(=O)N2C [Compound 26]	100	100	90
COc1cc(C(=O)N2CCC(N3CCN(C)CC3)CC2)ccc1Nc1ncc2c(n1)N1CCc3cccc(c31)C(=O)N2C [Compound 24]	–	–	47
COc1cc(C(=O)N2CCC(N3CCN(C)CC3)CC2)ccc1Nc1ncc2c(n1)N(C)c1ccccc1C(=O)N2C [15 (LRRK2-IN-1)]	77	100	33
COc1cc(C(=O)N2CCC(N3CCN(C)CC3)CC2)ccc1Nc1ncc2c(n1)N(C1CCCC1)c1ccccc1C(=O)N2C [Compound 25, 11-cyclopentyl-2-((2-methoxy-4-(4-(4-methylpiperazin-1-yl)piperidine-1-carbonyl)phenyl)amino)-5-methyl-5H-benzo[e]pyrimido[5,4-b][1,4]diazepin-6(11H)-one]	100	100	68

— paper PMC3914206
